Reference: PMC7316778 (Nature Communications, 2020)
Where “and” joins values, the source holds several entries; their conditions need not be identical. Equal values may be shown once. Read-outs that look alike come from different tables or passages of the source.

Assays:
Assay in all cases: SelectScreen kinase assay
NEK9 = NEK9 (Homo sapiens, UniProt Q8TD19)
Procedure: (§1) Selectivity profiling assays were performed by the Invitrogen SelectScreen™ Services. […] The concentration of ATP was selected to be equal to the KM, unless indicated otherwise.

NEK6 = NEK6 (Homo sapiens, UniProt Q9HC98); settings: for Inhibition at 1 µM (%): NEK6, ZLYTE, ATP Km app
Procedure: as §1

MYLK4 = biological target: T1, MYLK4 (Homo sapiens, UniProt Q86YV6)
T1 sequence (Q86YV6 1-388): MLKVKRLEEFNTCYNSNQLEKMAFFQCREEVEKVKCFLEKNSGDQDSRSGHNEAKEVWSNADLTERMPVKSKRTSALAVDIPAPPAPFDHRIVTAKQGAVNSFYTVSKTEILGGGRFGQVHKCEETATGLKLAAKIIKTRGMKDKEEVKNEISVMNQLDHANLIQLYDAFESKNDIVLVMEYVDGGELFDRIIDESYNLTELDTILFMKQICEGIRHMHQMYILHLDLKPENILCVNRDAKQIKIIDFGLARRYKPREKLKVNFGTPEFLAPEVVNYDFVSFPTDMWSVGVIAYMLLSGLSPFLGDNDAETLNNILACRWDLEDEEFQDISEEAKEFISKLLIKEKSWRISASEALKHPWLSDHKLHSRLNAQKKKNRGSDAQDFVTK
Procedure: as §1

KSR2 = biological target: T2, KSR2 (Homo sapiens, UniProt Q6VAB6); settings: for Inhibition at 1 µM (%): KSR2, ZLYTE, ATP Km app
T2 sequence (Q6VAB6 1-950): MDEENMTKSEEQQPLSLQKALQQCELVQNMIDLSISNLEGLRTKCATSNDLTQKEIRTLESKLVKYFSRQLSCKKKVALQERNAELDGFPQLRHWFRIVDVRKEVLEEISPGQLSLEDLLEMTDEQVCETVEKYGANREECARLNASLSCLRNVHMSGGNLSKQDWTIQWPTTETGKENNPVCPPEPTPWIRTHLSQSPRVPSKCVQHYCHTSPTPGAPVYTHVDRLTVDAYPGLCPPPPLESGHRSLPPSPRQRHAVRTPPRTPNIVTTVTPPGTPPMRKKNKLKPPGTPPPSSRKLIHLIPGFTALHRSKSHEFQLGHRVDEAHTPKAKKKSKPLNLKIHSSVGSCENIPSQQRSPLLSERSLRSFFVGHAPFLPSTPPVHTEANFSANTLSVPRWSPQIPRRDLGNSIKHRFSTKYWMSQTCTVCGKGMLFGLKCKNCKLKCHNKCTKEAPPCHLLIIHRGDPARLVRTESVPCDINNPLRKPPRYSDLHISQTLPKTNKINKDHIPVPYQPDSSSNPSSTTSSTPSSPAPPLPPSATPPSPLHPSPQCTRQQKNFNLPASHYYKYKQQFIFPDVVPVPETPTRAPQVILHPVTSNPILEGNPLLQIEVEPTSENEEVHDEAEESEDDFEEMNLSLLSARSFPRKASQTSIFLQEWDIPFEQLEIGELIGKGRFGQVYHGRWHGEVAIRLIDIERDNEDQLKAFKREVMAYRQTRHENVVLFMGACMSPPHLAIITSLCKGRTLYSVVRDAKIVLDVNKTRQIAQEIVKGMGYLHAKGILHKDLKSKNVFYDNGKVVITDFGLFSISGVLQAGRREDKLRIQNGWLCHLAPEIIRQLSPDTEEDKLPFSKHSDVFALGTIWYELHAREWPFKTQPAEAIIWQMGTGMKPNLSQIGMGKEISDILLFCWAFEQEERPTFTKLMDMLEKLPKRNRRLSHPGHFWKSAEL
Procedure: as §1

PLK1 = PLK1 (Homo sapiens, UniProt P53350)
PLK1, sequence (P53350 whole entry): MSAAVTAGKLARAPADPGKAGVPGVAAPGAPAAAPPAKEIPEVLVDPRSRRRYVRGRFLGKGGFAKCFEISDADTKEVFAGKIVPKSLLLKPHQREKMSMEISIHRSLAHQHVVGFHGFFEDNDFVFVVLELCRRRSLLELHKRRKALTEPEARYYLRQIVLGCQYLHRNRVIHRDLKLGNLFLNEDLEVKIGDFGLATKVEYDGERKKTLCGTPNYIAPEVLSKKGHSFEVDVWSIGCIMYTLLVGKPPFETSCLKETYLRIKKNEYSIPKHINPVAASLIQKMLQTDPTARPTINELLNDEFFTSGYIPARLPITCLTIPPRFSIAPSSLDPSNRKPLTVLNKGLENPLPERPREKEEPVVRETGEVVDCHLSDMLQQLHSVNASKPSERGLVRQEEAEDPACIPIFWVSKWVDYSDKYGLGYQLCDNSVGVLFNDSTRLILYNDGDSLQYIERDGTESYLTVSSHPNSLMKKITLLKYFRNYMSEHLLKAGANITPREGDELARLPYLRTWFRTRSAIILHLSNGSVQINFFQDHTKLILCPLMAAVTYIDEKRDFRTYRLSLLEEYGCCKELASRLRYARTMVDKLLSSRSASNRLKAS
Procedure: as §1

NTRK2 (TRKB) = NTRK2 (TRKB) (Homo sapiens, UniProt Q16620)
NTRK2 (TRKB), sequence (Q16620 32-822): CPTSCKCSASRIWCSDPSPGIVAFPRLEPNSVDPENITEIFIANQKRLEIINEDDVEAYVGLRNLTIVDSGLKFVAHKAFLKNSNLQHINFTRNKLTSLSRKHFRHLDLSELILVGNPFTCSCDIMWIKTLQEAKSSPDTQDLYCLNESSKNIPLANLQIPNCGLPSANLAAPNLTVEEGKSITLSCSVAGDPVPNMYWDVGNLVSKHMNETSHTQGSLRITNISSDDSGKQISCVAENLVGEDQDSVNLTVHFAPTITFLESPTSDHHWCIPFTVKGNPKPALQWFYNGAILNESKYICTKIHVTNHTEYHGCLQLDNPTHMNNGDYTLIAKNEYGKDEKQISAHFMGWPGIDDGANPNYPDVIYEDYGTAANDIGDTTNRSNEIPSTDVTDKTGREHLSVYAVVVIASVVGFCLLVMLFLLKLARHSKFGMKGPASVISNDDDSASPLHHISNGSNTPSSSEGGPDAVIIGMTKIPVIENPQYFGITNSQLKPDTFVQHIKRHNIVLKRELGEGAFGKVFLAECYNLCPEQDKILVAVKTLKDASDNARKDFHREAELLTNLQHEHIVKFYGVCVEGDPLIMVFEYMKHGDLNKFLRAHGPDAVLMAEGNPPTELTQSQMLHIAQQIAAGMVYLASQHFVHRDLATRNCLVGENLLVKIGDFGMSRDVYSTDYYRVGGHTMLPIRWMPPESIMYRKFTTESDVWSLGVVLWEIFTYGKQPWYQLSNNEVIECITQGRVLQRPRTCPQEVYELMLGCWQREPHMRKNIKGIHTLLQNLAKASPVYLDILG
Procedure: as §1

CDK1/cyclin B = CDK1/cyclin B (Homo sapiens, UniProt P06493); settings: 1 h, 1 μM WEL028, 1 h preincubation
Procedure: as §1

CDK3/cyclin E1 = CDK3/cyclin E1 (Homo sapiens, UniProt Q00526); settings: for Inhibition at 1 µM (%): CDK3/cyclin E1, LanthaScreen Binding
CDK3/cyclin E1, sequence (Q00526 whole entry): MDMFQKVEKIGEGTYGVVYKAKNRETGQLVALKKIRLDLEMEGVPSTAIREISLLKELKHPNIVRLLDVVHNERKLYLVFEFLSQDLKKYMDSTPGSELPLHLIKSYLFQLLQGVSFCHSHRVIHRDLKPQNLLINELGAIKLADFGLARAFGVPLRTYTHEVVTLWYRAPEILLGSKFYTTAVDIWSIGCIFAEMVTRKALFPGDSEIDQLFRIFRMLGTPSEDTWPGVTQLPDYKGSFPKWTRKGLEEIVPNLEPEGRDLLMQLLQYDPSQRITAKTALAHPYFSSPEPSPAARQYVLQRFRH
CDK3/cyclin E1, sequence (P24864 whole entry partner): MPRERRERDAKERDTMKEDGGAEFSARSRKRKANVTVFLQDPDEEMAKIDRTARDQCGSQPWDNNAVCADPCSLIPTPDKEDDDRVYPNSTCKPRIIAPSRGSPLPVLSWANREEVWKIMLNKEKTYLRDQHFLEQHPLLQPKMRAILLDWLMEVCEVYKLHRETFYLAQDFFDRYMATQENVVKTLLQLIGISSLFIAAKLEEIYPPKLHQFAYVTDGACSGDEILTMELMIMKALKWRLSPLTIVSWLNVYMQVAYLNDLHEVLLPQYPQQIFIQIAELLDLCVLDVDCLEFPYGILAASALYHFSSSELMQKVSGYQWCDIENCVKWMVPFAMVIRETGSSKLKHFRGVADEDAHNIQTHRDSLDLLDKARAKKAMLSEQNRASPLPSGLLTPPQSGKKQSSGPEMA
Procedure: as §1

BRSK1 (SAD1) = biological target: T3, BRSK1 (SAD1) (Homo sapiens, UniProt Q8TDC3)
T3 sequence (Q8TDC3 1-778): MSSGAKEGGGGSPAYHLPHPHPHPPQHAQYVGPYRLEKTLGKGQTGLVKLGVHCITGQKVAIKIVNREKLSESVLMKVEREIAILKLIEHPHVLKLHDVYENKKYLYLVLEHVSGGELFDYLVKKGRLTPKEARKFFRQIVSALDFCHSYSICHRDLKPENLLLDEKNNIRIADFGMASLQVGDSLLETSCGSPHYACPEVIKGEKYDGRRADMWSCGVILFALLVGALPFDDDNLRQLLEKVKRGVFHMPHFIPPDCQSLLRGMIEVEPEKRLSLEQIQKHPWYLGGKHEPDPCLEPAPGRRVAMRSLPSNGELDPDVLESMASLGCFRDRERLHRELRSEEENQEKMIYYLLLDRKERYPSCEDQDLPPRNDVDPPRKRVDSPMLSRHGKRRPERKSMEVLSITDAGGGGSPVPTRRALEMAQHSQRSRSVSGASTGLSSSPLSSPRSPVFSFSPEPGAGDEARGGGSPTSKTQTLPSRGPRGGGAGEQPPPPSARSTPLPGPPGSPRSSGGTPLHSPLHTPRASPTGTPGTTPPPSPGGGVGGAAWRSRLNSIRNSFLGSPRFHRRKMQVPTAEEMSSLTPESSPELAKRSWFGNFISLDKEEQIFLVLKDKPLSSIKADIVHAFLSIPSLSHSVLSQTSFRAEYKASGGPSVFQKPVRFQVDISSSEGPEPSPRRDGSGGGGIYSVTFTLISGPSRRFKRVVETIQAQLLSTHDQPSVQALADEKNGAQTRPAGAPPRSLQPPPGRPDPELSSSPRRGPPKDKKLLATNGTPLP
Procedure: as §1

CDK9/cyclin T1 = CDK9/cyclin T1 (Homo sapiens, UniProt P50750)
CDK9/cyclin T1, sequence (P50750 whole entry): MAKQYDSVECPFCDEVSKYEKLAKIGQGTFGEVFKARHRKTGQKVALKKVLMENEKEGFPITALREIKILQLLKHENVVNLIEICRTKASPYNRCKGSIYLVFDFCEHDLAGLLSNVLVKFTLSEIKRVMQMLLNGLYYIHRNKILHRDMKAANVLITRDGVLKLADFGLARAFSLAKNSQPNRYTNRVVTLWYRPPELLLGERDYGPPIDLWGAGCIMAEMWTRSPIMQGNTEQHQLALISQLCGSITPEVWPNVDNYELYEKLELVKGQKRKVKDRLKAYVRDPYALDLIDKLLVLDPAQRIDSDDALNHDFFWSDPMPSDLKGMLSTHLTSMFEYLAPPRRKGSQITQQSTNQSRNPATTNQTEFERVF
CDK9/cyclin T1, sequence (O60563 whole entry partner): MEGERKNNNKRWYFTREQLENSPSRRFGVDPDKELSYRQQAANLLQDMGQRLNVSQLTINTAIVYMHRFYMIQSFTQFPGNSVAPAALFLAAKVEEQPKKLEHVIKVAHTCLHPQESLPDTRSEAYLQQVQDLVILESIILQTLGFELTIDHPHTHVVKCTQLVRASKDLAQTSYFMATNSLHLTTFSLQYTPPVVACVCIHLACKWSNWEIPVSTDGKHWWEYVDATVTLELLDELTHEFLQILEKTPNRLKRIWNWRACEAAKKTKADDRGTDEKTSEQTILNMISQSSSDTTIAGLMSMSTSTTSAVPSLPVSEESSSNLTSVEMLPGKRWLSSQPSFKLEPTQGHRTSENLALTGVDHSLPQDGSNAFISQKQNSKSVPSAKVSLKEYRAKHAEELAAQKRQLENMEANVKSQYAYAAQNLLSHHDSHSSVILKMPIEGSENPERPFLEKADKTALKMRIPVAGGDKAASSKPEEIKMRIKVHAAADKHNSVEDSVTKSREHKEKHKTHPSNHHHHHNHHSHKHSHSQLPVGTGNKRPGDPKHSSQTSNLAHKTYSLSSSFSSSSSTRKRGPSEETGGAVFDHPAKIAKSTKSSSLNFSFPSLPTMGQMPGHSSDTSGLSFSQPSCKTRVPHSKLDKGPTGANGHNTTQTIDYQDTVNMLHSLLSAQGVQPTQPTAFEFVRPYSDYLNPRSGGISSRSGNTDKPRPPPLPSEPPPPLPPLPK
Procedure: as §1

[1] = 1 h, 1 μM WEL028, 1 h preincubation

NEK9, sequence (Q8TD19 whole entry): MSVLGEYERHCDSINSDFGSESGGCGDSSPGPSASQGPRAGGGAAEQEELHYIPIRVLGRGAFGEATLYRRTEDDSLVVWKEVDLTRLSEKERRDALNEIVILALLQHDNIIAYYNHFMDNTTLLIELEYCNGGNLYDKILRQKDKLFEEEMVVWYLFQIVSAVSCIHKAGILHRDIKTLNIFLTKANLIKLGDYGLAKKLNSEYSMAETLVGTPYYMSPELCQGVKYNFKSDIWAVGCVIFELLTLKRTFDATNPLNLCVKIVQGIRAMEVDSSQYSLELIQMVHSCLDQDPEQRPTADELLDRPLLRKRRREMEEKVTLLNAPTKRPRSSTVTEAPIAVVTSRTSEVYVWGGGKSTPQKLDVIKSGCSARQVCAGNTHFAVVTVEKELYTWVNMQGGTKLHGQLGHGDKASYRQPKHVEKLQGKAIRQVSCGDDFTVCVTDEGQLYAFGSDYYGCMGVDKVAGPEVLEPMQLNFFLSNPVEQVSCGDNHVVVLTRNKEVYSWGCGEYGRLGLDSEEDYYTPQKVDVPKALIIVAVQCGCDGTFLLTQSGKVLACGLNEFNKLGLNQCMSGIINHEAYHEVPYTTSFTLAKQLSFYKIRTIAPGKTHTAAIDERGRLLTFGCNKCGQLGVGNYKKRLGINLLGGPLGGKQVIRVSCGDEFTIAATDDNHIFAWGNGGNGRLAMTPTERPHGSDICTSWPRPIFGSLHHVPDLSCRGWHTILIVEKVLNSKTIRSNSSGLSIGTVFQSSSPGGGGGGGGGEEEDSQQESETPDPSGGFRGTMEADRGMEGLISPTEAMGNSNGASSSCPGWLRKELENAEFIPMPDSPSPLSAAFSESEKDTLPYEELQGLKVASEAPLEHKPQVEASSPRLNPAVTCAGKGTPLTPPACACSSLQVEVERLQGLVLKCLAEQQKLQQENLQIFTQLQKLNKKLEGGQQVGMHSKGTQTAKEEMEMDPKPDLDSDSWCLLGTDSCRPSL
NEK6, sequence (Q9HC98 whole entry): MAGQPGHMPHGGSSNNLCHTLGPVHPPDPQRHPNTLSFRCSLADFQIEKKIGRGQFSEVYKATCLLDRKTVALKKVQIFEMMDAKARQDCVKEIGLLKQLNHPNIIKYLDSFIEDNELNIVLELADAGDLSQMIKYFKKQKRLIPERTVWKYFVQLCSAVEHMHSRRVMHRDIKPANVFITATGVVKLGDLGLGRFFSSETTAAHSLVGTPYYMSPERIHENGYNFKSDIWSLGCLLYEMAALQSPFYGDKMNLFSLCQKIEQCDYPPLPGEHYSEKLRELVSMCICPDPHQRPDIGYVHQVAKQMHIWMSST

For `C#CCOc1ccc(Nc2ncc(Cl)c(Nc3ccccc3NC(=O)C=C)n2)c(OC)c1` [Compound 6], the inhibition at 1 µM (NEK9; [1]) was -8%, the “Inhibition at 1 µM (%)” value (NEK9; NEK9, 1 µM, ZLYTE, ATP Km app, listed as WEL028, 1 µM) was -7% and -9% and the inhibition at 1 µM (NEK6; [1]) was 9%. The “Inhibition at 1 µM (%)” value (NEK6) was 13%, the “Inhibition at 1 µM (%)” value (NEK6; listed as WEL028, 1 µM) was 5% and the inhibition at 1 µM (MYLK4; [1]) was 10%. The “Inhibition at 1 µM (%)” value (MYLK4; MYLK4, 1 µM, LanthaScreen Binding, listed as WEL028, 1 µM) was 14%, the inhibition at 1 µM (MYLK4; read-out: Inhibition at 1 µM (%), MYLK4, 1 µM, LanthaScreen Binding) was 7% and the inhibition at 1 µM (KSR2; [1]) was 1%. The “Inhibition at 1 µM (%)” value (KSR2) was 2%, the “Inhibition at 1 µM (%)” value (KSR2; listed as WEL028, 1 µM) was 0% and the inhibition at 1 µM (PLK1; [1]) was 12%. For the same molecule, the “Inhibition at 1 µM (%)” value (PLK1; PLK1, 1 µM, ZLYTE, ATP Km app, listed as WEL028, 1 µM) was 8%, the inhibition at 1 µM (PLK1; read-out: Inhibition at 1 µM (%), PLK1, 1 µM, ZLYTE, ATP Km app) was 15% and the inhibition at 1 µM (NTRK2 (TRKB); [1]) was 5%. For the same molecule, the “Inhibition at 1 µM (%)” value (NTRK2 (TRKB); NTRK2 (TRKB), 1 µM, ZLYTE, ATP Km app, listed as WEL028, 1 µM) was 0% and 9%, the inhibition at 1 µM (CDK1/cyclin B) was 1% and the “Inhibition (%)” value (CDK3/cyclin E1; 1 μM WEL028, 1 h preincubation) was 1%. The “Inhibition at 1 µM (%)” value (CDK3/cyclin E1) was -3%, the “Inhibition at 1 µM (%)” value (CDK3/cyclin E1; listed as WEL028, 1 µM) was 5% and the inhibition at 1 µM (BRSK1 (SAD1); [1]) was 2%. For the same molecule, the “Inhibition at 1 µM (%)” value (BRSK1 (SAD1); BRSK1 (SAD1), 1 µM, ZLYTE, ATP Km app, listed as WEL028, 1 µM) was 1%, the inhibition at 1 µM (BRSK1 (SAD1); read-out: Inhibition at 1 µM (%), BRSK1 (SAD1), 1 µM, ZLYTE, ATP Km app) was 2% and the inhibition at 1 µM (CDK9/cyclin T1; [1]) was 16%. The “Inhibition at 1 µM (%)” value (CDK9/cyclin T1; CDK9/cyclin T1, 1 µM, Adapta, ATP Km app, listed as WEL028, 1 µM) was 12% and the inhibition at 1 µM (CDK9/cyclin T1; read-out: Inhibition at 1 µM (%), CDK9/cyclin T1, 1 µM, Adapta, ATP Km app) was 20%.
